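Briefly, cells in 96-well plates were exposed to five compound concentrations for 48 h, and endpoints were estimated by linear interpolation. At the GI50, growth is halved. TGI marks complete inhibition of growth.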
Assays:
Test in all cases: NCI anticancer screen, dose series, 48 h
MALME-3M melanoma = test system: MALME-3M melanoma
T-47D breast = test system: T-47D breast
MOLT-4 leukemia = test system: MOLT-4 leukemia
A498 renal = test system: A498 renal
MCF7 breast = test system: MCF7 breast
HOP-62 NSCLC = test system: HOP-62 NSCLC
SK-MEL-2 melanoma = test system: SK-MEL-2 melanoma
SR leukemia = test system: SR leukemia
OVCAR-5 ovarian = test system: OVCAR-5 ovarian
PC-3 prostate = test system: PC-3 prostate
OVCAR-4 ovarian = test system: OVCAR-4 ovarian
CCRF-CEM leukemia = test system: CCRF-CEM leukemia
SW-620 colon = test system: SW-620 colon
SN12C renal = test system: SN12C renal
NCI-H226 lung = test system: NCI-H226 lung
SNB-75 CNS = test system: SNB-75 CNS
HCT-15 colon = test system: HCT-15 colon
UO-31 renal = test system: UO-31 renal
RXF 393 renal = test system: RXF 393 renal
UACC-62 melanoma = test system: UACC-62 melanoma
K-562 leukemia = test system: K-562 leukemia
BT-549 breast = test system: BT-549 breast
SK-MEL-5 melanoma = test system: SK-MEL-5 melanoma
U251 CNS = test system: U251 CNS
TK-10 renal = test system: TK-10 renal
SF-295 CNS = test system: SF-295 CNS
LOX IMVI melanoma = test system: LOX IMVI melanoma
SF-268 CNS = test system: SF-268 CNS

CC(=O)/C=C/C1=C(c2csc3ccccc23)c2ccccc2CC1
GI50 (MALME-3M melanoma): 21.7 µM
TGI (MALME-3M melanoma): 55.4 µM
GI50 (T-47D breast): 22.6 µM
TGI (T-47D breast): > 100 µM
GI50 (MOLT-4 leukemia): 15.6 µM
TGI (MOLT-4 leukemia): > 100 µM
GI50 (A498 renal): 22.4 µM
TGI (A498 renal): 50.2 µM
GI50 (MCF7 breast): 21.8 µM
TGI (MCF7 breast): 87.8 µM
GI50 (HOP-62 NSCLC): 44.5 µM
TGI (HOP-62 NSCLC): > 100 µM
GI50 (SK-MEL-2 melanoma): 15.2 µM
TGI (SK-MEL-2 melanoma): 40.9 µM
GI50 (SR leukemia): 16 µM
TGI (SR leukemia): 64.6 µM
GI50 (OVCAR-5 ovarian): 33.8 µM
TGI (OVCAR-5 ovarian): > 100 µM
GI50 (PC-3 prostate): 29.9 µM
TGI (PC-3 prostate): > 100 µM
GI50 (OVCAR-4 ovarian): 17.8 µM
TGI (OVCAR-4 ovarian): > 100 µM
GI50 (CCRF-CEM leukemia): 23.2 µM
TGI (CCRF-CEM leukemia): 79.4 µM
GI50 (SW-620 colon): 28 µM
TGI (SW-620 colon): > 100 µM
GI50 (SN12C renal): 32.6 µM
TGI (SN12C renal): > 100 µM
GI50 (NCI-H226 lung): 19.8 µM
TGI (NCI-H226 lung): 44.1 µM
GI50 (SNB-75 CNS): 22.4 µM
TGI (SNB-75 CNS): > 100 µM
GI50 (HCT-15 colon): 23.5 µM
TGI (HCT-15 colon): > 100 µM
GI50 (UO-31 renal): 11.6 µM
TGI (UO-31 renal): 41.2 µM
GI50 (RXF 393 renal): 20.2 µM
TGI (RXF 393 renal): 46.5 µM
GI50 (UACC-62 melanoma): 12.8 µM
TGI (UACC-62 melanoma): 30.5 µM
GI50 (K-562 leukemia): 18.8 µM
TGI (K-562 leukemia): > 100 µM
GI50 (BT-549 breast): 22.9 µM
TGI (BT-549 breast): 55 µM
GI50 (SK-MEL-5 melanoma): 13.4 µM
TGI (SK-MEL-5 melanoma): 28.8 µM
GI50 (U251 CNS): 31.1 µM
TGI (U251 CNS): > 100 µM
GI50 (TK-10 renal): 23.5 µM
TGI (TK-10 renal): 92.9 µM
GI50 (SF-295 CNS): 21 µM
TGI (SF-295 CNS): 65.2 µM
GI50 (LOX IMVI melanoma): 16.9 µM
TGI (LOX IMVI melanoma): 48.4 µM
GI50 (SF-268 CNS): 31.8 µM
TGI (SF-268 CNS): > 100 µM
